The text below walks through data of patent US6716881B2, “Carbanilides used as pesticides” (Bayer Aktiengesellschaft, priority 1996, dated 2004).

One assay has as its system Coriolus versicolor. The assay is described as follows: Inhibitory test with giant colonies of Basidiomycetes (Coriolus versicolor). The class given is cell-based. The note with it: after 3 or 7 days at 26° C., vs untreated control; for Inhibition of the growth of the hypha in % with Coriolus versicolor at an active compound concentration of 1 ppm: 1 ppm in agar; for Inhibition of the growth of the hypha in % with Coriolus versicolor at an active compound concentration of 3 ppm: 3 ppm in agar; for Inhibition of the growth of the hypha in % with Coriolus versicolor at an active compound concentration of 6 ppm: 6 ppm in agar. On the procedure:
(§1) Inhibitory Test with Giant Colonies of Basidiomycetes.
(§2) To produce a suitable preparation of active compound, 0.2 parts by weight of active compound are admixed with 99.8 parts by weight of the abovementioned solvent.
(§3) An agar which has been prepared using malt extract peptone is mixed in the liquid state with the preparation of active compound at the particular desired application rate. After the agar has set, the resulting nutrient medium is incubated at 26° C. with pieces of mycelium which had been punched out of colonies of Coniophora puteana or Coriolus versicolor.
(§4) Evaluation is carried out after 3 or 7 days' storage at 26° C. by measuring the growth of the hypha and scoring the resulting inhibition in percent in comparison to the untreated control. 0% means an inhibition of growth which corresponds to that of the untreated control, while an inhibition of growth of 100% means that no growth of the hypha is observed.

Another assay concerns Coniophora puteana. The assay is described as follows: Inhibitory test with giant colonies of Basidiomycetes (Coniophora puteana). In kind it is cell-based. The following applies: after 3 or 7 days at 26° C., vs untreated control; for Inhibition of the growth of the hypha in % with Coniophora puteana at an active compound concentration of 1 ppm: 1 ppm in agar; for Inhibition of the growth of the hypha in % with Coniophora puteana at an active compound concentration of 3 ppm: 3 ppm in agar; for Inhibition of the growth of the hypha in % with Coniophora puteana at an active compound concentration of 6 ppm: 6 ppm in agar. On the procedure:
as §1, §2, §3, §4

On to `Cc1nc(C(F)(F)F)c(C(=O)Nc2ccccc2C=Cc2ccccc2)s1` [Example 5], for which, in the assay with Coriolus versicolor, the “Inhibition of the growth of the hypha in % with Coriolus versicolor at an active compound concentration of 1 ppm” value was determined as 70%, the “Inhibition of the growth of the hypha in % with Coriolus versicolor at an active compound concentration of 3 ppm” value amounted to 90% and the “Inhibition of the growth of the hypha in % with Coriolus versicolor at an active compound concentration of 6 ppm” value was found to be 100%. Moreover, in the assay with Coniophora puteana, the “Inhibition of the growth of the hypha in % with Coniophora puteana at an active compound concentration of 1 ppm” value is reported as 70%, the “Inhibition of the growth of the hypha in % with Coniophora puteana at an active compound concentration of 3 ppm” value is 80% and the “Inhibition of the growth of the hypha in % with Coniophora puteana at an active compound concentration of 6 ppm” value is on record as 100%.

Regarding `Cc1nn(C)cc1C(=O)Nc1ccccc1C=Cc1ccccc1` [Example 18], in the assay on Coriolus versicolor, the “Inhibition of the growth of the hypha in % with Coriolus versicolor at an active compound concentration of 1 ppm” value came out at 70%, the “Inhibition of the growth of the hypha in % with Coriolus versicolor at an active compound concentration of 3 ppm” value is recorded as 100% and the “Inhibition of the growth of the hypha in % with Coriolus versicolor at an active compound concentration of 6 ppm” value is recorded as 100%. In addition, in the assay on Coniophora puteana, the “Inhibition of the growth of the hypha in % with Coniophora puteana at an active compound concentration of 1 ppm” value is reported as 70%, the “Inhibition of the growth of the hypha in % with Coniophora puteana at an active compound concentration of 3 ppm” value was 100% and the “Inhibition of the growth of the hypha in % with Coniophora puteana at an active compound concentration of 6 ppm” value stood at 100%.

As for `Cc1nn(C)c(Cl)c1C(=O)Nc1ccccc1CSc1ccccc1` [Example 39], in the assay on Coriolus versicolor, the “Inhibition of the growth of the hypha in % with Coriolus versicolor at an active compound concentration of 1 ppm” value worked out at 90%, the “Inhibition of the growth of the hypha in % with Coriolus versicolor at an active compound concentration of 3 ppm” value is 100% and the “Inhibition of the growth of the hypha in % with Coriolus versicolor at an active compound concentration of 6 ppm” value is 100%. For the same compound, in the assay on Coniophora puteana, the “Inhibition of the growth of the hypha in % with Coniophora puteana at an active compound concentration of 1 ppm” value was found to be 70%, the “Inhibition of the growth of the hypha in % with Coniophora puteana at an active compound concentration of 3 ppm” value worked out at 80% and the “Inhibition of the growth of the hypha in % with Coniophora puteana at an active compound concentration of 6 ppm” value was determined as 90%.

As for `Cc1nc(C(F)(F)F)c(C(=O)Nc2ccccc2CSc2ccccc2)s1` [Example 40], in the assay on Coriolus versicolor, the “Inhibition of the growth of the hypha in % with Coriolus versicolor at an active compound concentration of 1 ppm” value worked out at 40%, the “Inhibition of the growth of the hypha in % with Coriolus versicolor at an active compound concentration of 3 ppm” value was determined as 70% and the “Inhibition of the growth of the hypha in % with Coriolus versicolor at an active compound concentration of 6 ppm” value was 90%. Also, in the assay on Coniophora puteana, the “Inhibition of the growth of the hypha in % with Coniophora puteana at an active compound concentration of 1 ppm” value is 50%, the “Inhibition of the growth of the hypha in % with Coniophora puteana at an active compound concentration of 3 ppm” value is 60% and the “Inhibition of the growth of the hypha in % with Coniophora puteana at an active compound concentration of 6 ppm” value was found to be 70%.

As to `Cc1ccc(SCc2ccccc2NC(=O)c2c(C)nn(C)c2Cl)cc1` [Example 45], in the assay on Coriolus versicolor, the “Inhibition of the growth of the hypha in % with Coriolus versicolor at an active compound concentration of 1 ppm” value was 90%, the “Inhibition of the growth of the hypha in % with Coriolus versicolor at an active compound concentration of 3 ppm” value worked out at 100% and the “Inhibition of the growth of the hypha in % with Coriolus versicolor at an active compound concentration of 6 ppm” value is 100%. In addition, in the assay on Coniophora puteana, the “Inhibition of the growth of the hypha in % with Coniophora puteana at an active compound concentration of 1 ppm” value amounted to 70%, the “Inhibition of the growth of the hypha in % with Coniophora puteana at an active compound concentration of 3 ppm” value worked out at 80% and the “Inhibition of the growth of the hypha in % with Coniophora puteana at an active compound concentration of 6 ppm” value is 90%.

As for `Cc1ccc(OCc2ccccc2NC(=O)c2cn(C)nc2C(F)(F)F)c(C)c1` [Example 52], in the assay on Coriolus versicolor, the “Inhibition of the growth of the hypha in % with Coriolus versicolor at an active compound concentration of 1 ppm” value was 90%, the “Inhibition of the growth of the hypha in % with Coriolus versicolor at an active compound concentration of 3 ppm” value was 100% and the “Inhibition of the growth of the hypha in % with Coriolus versicolor at an active compound concentration of 6 ppm” value was determined as 100%. In the assay with Coniophora puteana, the “Inhibition of the growth of the hypha in % with Coniophora puteana at an active compound concentration of 1 ppm” value is given as 80%, the “Inhibition of the growth of the hypha in % with Coniophora puteana at an active compound concentration of 3 ppm” value is 90% and the “Inhibition of the growth of the hypha in % with Coniophora puteana at an active compound concentration of 6 ppm” value is recorded as 100%.

For the compound `CC1=C(C(=O)Nc2ccccc2OCc2ccc(C)cc2C)SCCO1` [Example 78], in the assay on Coriolus versicolor, the “Inhibition of the growth of the hypha in % with Coriolus versicolor at an active compound concentration of 1 ppm” value is reported as 90%, the “Inhibition of the growth of the hypha in % with Coriolus versicolor at an active compound concentration of 3 ppm” value was found to be 90% and the “Inhibition of the growth of the hypha in % with Coriolus versicolor at an active compound concentration of 6 ppm” value is listed as 100%. In addition, in the assay with Coniophora puteana, the “Inhibition of the growth of the hypha in % with Coniophora puteana at an active compound concentration of 1 ppm” value is 70%, the “Inhibition of the growth of the hypha in % with Coniophora puteana at an active compound concentration of 3 ppm” value is 80% and the “Inhibition of the growth of the hypha in % with Coniophora puteana at an active compound concentration of 6 ppm” value was 90%.

As to `Cc1nn(C)cc1C(=O)Nc1ccccc1CSc1ccc(Cl)cc1` [Example 81], in the assay on Coriolus versicolor, the “Inhibition of the growth of the hypha in % with Coriolus versicolor at an active compound concentration of 1 ppm” value amounted to 90%, the “Inhibition of the growth of the hypha in % with Coriolus versicolor at an active compound concentration of 3 ppm” value turned out to be 90% and the “Inhibition of the growth of the hypha in % with Coriolus versicolor at an active compound concentration of 6 ppm” value is given as 100%. Further, in the assay with Coniophora puteana, the “Inhibition of the growth of the hypha in % with Coniophora puteana at an active compound concentration of 1 ppm” value worked out at 70%, the “Inhibition of the growth of the hypha in % with Coniophora puteana at an active compound concentration of 3 ppm” value worked out at 90% and the “Inhibition of the growth of the hypha in % with Coniophora puteana at an active compound concentration of 6 ppm” value is on record as 100%.

On to `Cc1nn(C)c(Cl)c1C(=O)Nc1ccccc1CSc1ccc(Cl)cc1` [Example 84], for which, in the assay with Coriolus versicolor, the “Inhibition of the growth of the hypha in % with Coriolus versicolor at an active compound concentration of 1 ppm” value was 90%, the “Inhibition of the growth of the hypha in % with Coriolus versicolor at an active compound concentration of 3 ppm” value stood at 100% and the “Inhibition of the growth of the hypha in % with Coriolus versicolor at an active compound concentration of 6 ppm” value stood at 100%. In the assay on Coniophora puteana, the “Inhibition of the growth of the hypha in % with Coniophora puteana at an active compound concentration of 1 ppm” value was determined as 80%, the “Inhibition of the growth of the hypha in % with Coniophora puteana at an active compound concentration of 3 ppm” value stood at 80% and the “Inhibition of the growth of the hypha in % with Coniophora puteana at an active compound concentration of 6 ppm” value amounted to 100%.

Regarding `Cc1nc(C(F)(F)F)c(C(=O)Nc2ccccc2CSc2ccc(Cl)cc2)s1` [Example 85], in the assay on Coriolus versicolor, the “Inhibition of the growth of the hypha in % with Coriolus versicolor at an active compound concentration of 1 ppm” value worked out at 70%, the “Inhibition of the growth of the hypha in % with Coriolus versicolor at an active compound concentration of 3 ppm” value was 70% and the “Inhibition of the growth of the hypha in % with Coriolus versicolor at an active compound concentration of 6 ppm” value is recorded as 90%. Further, in the assay on Coniophora puteana, the “Inhibition of the growth of the hypha in % with Coniophora puteana at an active compound concentration of 1 ppm” value came to 70%, the “Inhibition of the growth of the hypha in % with Coniophora puteana at an active compound concentration of 3 ppm” value is 80% and the “Inhibition of the growth of the hypha in % with Coniophora puteana at an active compound concentration of 6 ppm” value was determined as 80%.

For the compound `Cc1ccc(OCc2ccccc2NC(=O)c2cn(C)nc2C(F)F)cc1` [Example 119], in the assay with Coriolus versicolor, the “Inhibition of the growth of the hypha in % with Coriolus versicolor at an active compound concentration of 1 ppm” value turned out to be 100%, the “Inhibition of the growth of the hypha in % with Coriolus versicolor at an active compound concentration of 3 ppm” value is on record as 100% and the “Inhibition of the growth of the hypha in % with Coriolus versicolor at an active compound concentration of 6 ppm” value stood at 100%. Moreover, in the assay on Coniophora puteana, the “Inhibition of the growth of the hypha in % with Coniophora puteana at an active compound concentration of 1 ppm” value turned out to be 100%, the “Inhibition of the growth of the hypha in % with Coniophora puteana at an active compound concentration of 3 ppm” value is 100% and the “Inhibition of the growth of the hypha in % with Coniophora puteana at an active compound concentration of 6 ppm” value was found to be 100%.

Regarding `Cn1cc(C(=O)Nc2ccccc2COc2ccccc2)c(C(F)F)n1` [Example 123], in the assay with Coriolus versicolor, the “Inhibition of the growth of the hypha in % with Coriolus versicolor at an active compound concentration of 1 ppm” value came to 100%, the “Inhibition of the growth of the hypha in % with Coriolus versicolor at an active compound concentration of 3 ppm” value is recorded as 100% and the “Inhibition of the growth of the hypha in % with Coriolus versicolor at an active compound concentration of 6 ppm” value is given as 100%. In the assay with Coniophora puteana, the “Inhibition of the growth of the hypha in % with Coniophora puteana at an active compound concentration of 1 ppm” value worked out at 100%, the “Inhibition of the growth of the hypha in % with Coniophora puteana at an active compound concentration of 3 ppm” value came out at 100% and the “Inhibition of the growth of the hypha in % with Coniophora puteana at an active compound concentration of 6 ppm” value turned out to be 100%.
